{"source": "patent US8592435B2", "about": "“Nitrogen-containing six-membered aromatic ring derivatives and pharmaceutical products containing the same” (Daiichi Sankyo Company, Limited, priority 2007, dated 2013)", "key": {"[1]": {"test_system": "mixture of human vascular endothelial cells and fibroblasts", "assay": "Test Example 2: ability to promote angiogenesis (angiogenesis test kit KZ-1000)", "assay_type": "cell-based", "conditions": "Homo sapiens, 216 h; Compound Conc. = 3 μM; lumen length, % of control, day 9; read-out: Promotion of angiogenesis (%)", "outline": "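Co-culture of human endothelial cells and fibroblasts; compound added on days 1, 4 and 7, CD31 immunostaining on day 9. Lumen length quantified from images and expressed as % of untreated control; 120 used as activity threshold.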"}, "[2]": {"test_system": "hippocampal neurons", "assay": "Test Example 1: ability to promote axonal outgrowth", "assay_type": "cell-based, Wistar rats", "conditions": "Hippocampal neuron, 216 h; Compound Conc. = 3 μM; % of control; rat hippocampal neurons, day 9; read-out: Promotion of axonal outgrowth (%)", "outline": "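Embryonic day-18 Wistar rat hippocampal neurons were cultured at 37° C, treated with AraC from day 3, and given compound at 3 μM and 0.3 μM on days 3 and 7. On day 9, GAP-43-stained axons were quantified and expressed as % of control; bFGF-based threshold is 120.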"}, "[3]": {"test_system": "spinal cord neurons", "assay": "Test Example 3: ability to promote the neurite outgrowth of spinal cord neurons", "assay_type": "cell-based, Wistar rats", "conditions": "Compound Conc. = 0.1 μM; % of control, day 3", "procedure": "According to the method of Martin G. Hanson Jr. [J. Neurosci., 1998 Sep. 15; 18(18): 7361-71], the spinal cord region was isolated from 15-day embryos of female Wistar rats and the cells were dispersed using the papain dissociation system. Neurons were collected using 6.8% Metrizamide density gradient and were suspended in 2% FBS+Leibovitz's −15 medium so that the density of the cells will be 2×10^3 cells/well/200 μL. 200 μL of the cell suspension was inoculated on a poly-D-lysine/laminin-coated 96 well plate and the plate was incubated in an incubator at 37° C. Test compounds were added 1 hour after seeding of cells.\nOn day 3 of the incubation period, neurons were stained with Calcein-AM and the lengths of neurites were determined using IN Cell Analyzer (GE Healthcare Bioscience).\nThe ability (%) of each test compound to promote neurite outgrowth was calculated from the following equation: The ability to promote neurite outgrowth (%)=[(measurement with a compound of interest)/(measurement of control)]×100\nExample Compounds 65, 71, 74, 92, 130 and 135 were used as test compounds and were each added at a concentration of 0.1 μM.\nThe results are shown in Table 27. bFGF gives a measurement of about 130 in this test."}}}
{"smiles": "Cc1nc(OCC(=O)N(C)C2CCN(Cc3ccccc3)CC2)nc(C)c1N", "note": "[Compound 65, 2-(5-amino-4,6-dimethylpyrimidine-2-yloxy)-N-(1-benzylpiperidine-4-yl)-N-methylacetamide]", "values": [{"measurement": "activity at 3 µM", "setting": "[1]", "result": 170, "unit": "%"}, {"measurement": "activity at 3 µM", "setting": "[2]", "result": 134, "unit": "%"}, {"measurement": "Promotion of spinal cord neurite outgrowth (%)", "setting": "[3]", "result": 135, "unit": "%"}]}
